Assay results published in patent US11053204B2, “Pyrimidinyloxy benzene derivatives as herbicides” (FMC Corporation, priority 2015, dated 2021).

Assays:
Format in all cases: in vivo
[1] = test system: giant foxtail (Setaria faberii); assay: Test A preemergence, visual injury rating
Procedure, shortened: (§1)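 Compounds in non-phytotoxic solvent with surfactant applied as soil spray preemergence, or postemergence to plants 2-10 cm at one- to two-leaf stage, in loam/sand. After approximately 10 days in greenhouse, injury rated visually versus untreated controls, 0 (no effect) to 100 (complete control).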

kochia (Kochia scoparia) [2] = assay: Test A preemergence, visual injury rating
Procedure, shortened: as §1

[3] = test system: pigweed (Amaranthus retroflexus); assay: Test A preemergence, visual injury rating
Procedure, shortened: as §1

[4] = test system: barnyardgrass (Echinochloa crus-galli); assay: Test A preemergence, visual injury rating
Procedure, shortened: as §1

[5] = test system: ragweed (common ragweed, Ambrosia elatior); assay: Test A preemergence, visual injury rating
Procedure, shortened: as §1

[6] = test system: Italian ryegrass (Lolium multiflorum); assay: Test A preemergence, visual injury rating
Procedure, shortened: as §1

[7] = test system: giant foxtail (Setaria faberii); assay: Test A postemergence, visual injury rating; settings: 0 is no effect, 100 is complete control; for Foxtail, Giant plant response rating: 0 to 100 scale, approximately 10 days
Procedure, shortened: as §1

corn (Zea mays) = assay: Test A postemergence, visual injury rating; settings: 0 is no effect, 100 is complete control; for Corn plant response rating: 0 to 100 scale, approximately 10 days
Procedure, shortened: as §1

kochia (Kochia scoparia) [8] = assay: Test A postemergence, visual injury rating; settings: 0 is no effect, 100 is complete control; for Kochia plant response rating: 0 to 100 scale, approximately 10 days
Procedure, shortened: as §1

[9] = test system: blackgrass (Alopecurus myosuroides); assay: Test A postemergence, visual injury rating; settings: 0 is no effect, 100 is complete control; for Blackgrass plant response rating: 0 to 100 scale, approximately 10 days
Procedure, shortened: as §1

[10] = test system: pigweed (Amaranthus retroflexus); assay: Test A postemergence, visual injury rating; settings: 0 is no effect, 100 is complete control; for Pigweed plant response rating: 0 to 100 scale, approximately 10 days
Procedure, shortened: as §1

[11] = test system: wheat (Triticum aestivum); assay: Test A postemergence, visual injury rating; settings: 0 is no effect, 100 is complete control; for Wheat plant response rating: 0 to 100 scale, approximately 10 days
Procedure, shortened: as §1

[12] = test system: barnyardgrass (Echinochloa crus-galli); assay: Test A postemergence, visual injury rating; settings: 0 is no effect, 100 is complete control; for Barnyardgrass plant response rating: 0 to 100 scale, approximately 10 days
Procedure, shortened: as §1

[13] = test system: galium (catchweed bedstraw, Galium aparine); assay: Test A postemergence, visual injury rating; settings: 0 is no effect, 100 is complete control; for Galium plant response rating: 0 to 100 scale, approximately 10 days
Procedure, shortened: as §1

[14] = test system: ragweed (common ragweed, Ambrosia elatior); assay: Test A postemergence, visual injury rating; settings: 0 is no effect, 100 is complete control; for Ragweed plant response rating: 0 to 100 scale, approximately 10 days
Procedure, shortened: as §1

[15] = test system: Italian ryegrass (Lolium multiflorum); assay: Test A postemergence, visual injury rating; settings: 0 is no effect, 100 is complete control; for Ryegrass, Italian plant response rating: 0 to 100 scale, approximately 10 days
Procedure, shortened: as §1

[16] = test system: ducksalad (Heteranthera limosa); assay: Test B flooded paddy test, plant response rating; settings: 250 g ai/ha; Flood; scale of 0 to 100 where 0 is no effect and 100 is complete control; 13 to 15 days
Procedure, shortened: (§2)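 Compound was added to standing water 3 cm above soil, flood maintained, and plants held in a greenhouse before visual scoring against controls at 13 to 15 days.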

[17] = test system: sedge, umbrella (small-flower umbrella sedge, Cyperus difformis); assay: Test B flooded paddy test, plant response rating; settings: 250 g ai/ha; Flood; scale of 0 to 100 where 0 is no effect and 100 is complete control; 13 to 15 days
Procedure, shortened: as §2

rice (Oryza sativa) = assay: Test B flooded paddy test, plant response rating; settings: 250 g ai/ha; Flood; scale of 0 to 100 where 0 is no effect and 100 is complete control; 13 to 15 days
Procedure, shortened: as §2

[18] = test system: barnyardgrass (Echinochloa crus-galli); assay: Test B flooded paddy test, plant response rating; settings: 250 g ai/ha; Flood; scale of 0 to 100 where 0 is no effect and 100 is complete control; 13 to 15 days
Procedure, shortened: as §2

[19] = 31 g ai/ha, 0 to 100 scale, 0 no effect, 100 complete control
[20] = 125 g ai/ha, 0 to 100 scale (0 no effect, 100 complete control)

SMILES | Plant response rating, Foxtail, Giant [1, 19] | Plant response rating, Kochia (kochia (Kochia scoparia) [2]; [19]) | Plant response rating, Pigweed [3, 19] | Plant response rating, Barnyardgrass [4, 19] | Plant response rating, Ragweed [5, 19] | Plant response rating, Ryegrass, Italian [6, 19] | Foxtail, Giant plant response rating ([7]; 31 g ai/ha) | Corn plant response rating (corn (Zea mays); 31 g ai/ha) | Kochia plant response rating (kochia (Kochia scoparia) [8]; 31 g ai/ha) | Blackgrass plant response rating ([9]; 31 g ai/ha) | Pigweed plant response rating ([10]; 31 g ai/ha) | Wheat plant response rating ([11]; 31 g ai/ha) | Barnyardgrass plant response rating ([12]; 31 g ai/ha) | Galium plant response rating ([13]; 31 g ai/ha) | Ragweed plant response rating ([14]; 31 g ai/ha) | Ryegrass, Italian plant response rating ([15]; 31 g ai/ha) | Plant response rating, Ducksalad [16] | Plant response rating, Sedge, Umbrella [17] | Plant response rating, Rice (rice (Oryza sativa)) | Plant response rating, Barnyardgrass [18] | also measured
O=C(OCCC1CC1)c1c(Br)cccc1Oc1ncc(Cl)cn1 [Compound 123] | 40 | 0 | 0 | 20 | 0 | 0 | 20 | 10 | 50 | 10 | 70 | 0 | 10 | 90 | 0 | 0 | 95 | 95 | 35 | 40 | Plant response rating, Foxtail, Giant [1, 20]: 100; Plant response rating, Kochia (kochia (Kochia scoparia) [2]; [20]): 10; Plant response rating, Pigweed [3, 20]: 80; Plant response rating, Barnyardgrass [4, 20]: 70; Plant response rating, Ragweed [5, 20]: 0; Plant response rating, Ryegrass, Italian [6, 20]: 20; Foxtail, Giant plant response rating ([7]; 125 g ai/ha): 50; Corn plant response rating (corn (Zea mays); 125 g ai/ha): 10; Kochia plant response rating (kochia (Kochia scoparia) [8]; 125 g ai/ha): 90; Blackgrass plant response rating ([9]; 125 g ai/ha): 50; Pigweed plant response rating ([10]; 125 g ai/ha): 100; Wheat plant response rating ([11]; 125 g ai/ha): 0; Barnyardgrass plant response rating ([12]; 125 g ai/ha): 50; Galium plant response rating ([13]; 125 g ai/ha): 100; Ragweed plant response rating ([14]; 125 g ai/ha): 10; Ryegrass, Italian plant response rating ([15]; 125 g ai/ha): 20
CC(=NOC(C)C)c1c(Br)cccc1Oc1ncc(Cl)cn1 [Compound 105] | 0 | 0 | 0 | 0 | 0 | 0 | 0 | 0 | 0 | 0 | 10 | 0 | 0 | 10 | 0 | 0 | 40 | 0 | 0 | 0 | Plant response rating, Foxtail, Giant [1, 20]: 20; Plant response rating, Kochia (kochia (Kochia scoparia) [2]; [20]): 0; Plant response rating, Pigweed [3, 20]: 20; Barnyardgrass plant response rating [4, 20]: 30; Plant response rating, Ragweed [5, 20]: 0; Plant response rating, Ryegrass, Italian [6, 20]: 0; Foxtail, Giant plant response rating ([7]; 125 g ai/ha): 0; Corn plant response rating (corn (Zea mays); 125 g ai/ha): 0; Kochia plant response rating (kochia (Kochia scoparia) [8]; 125 g ai/ha): 10; Blackgrass plant response rating ([9]; 125 g ai/ha): 10; Pigweed plant response rating ([10]; 125 g ai/ha): 30; Wheat plant response rating ([11]; 125 g ai/ha): 0; Barnyardgrass plant response rating ([12]; 125 g ai/ha): 0; Galium plant response rating ([13]; 125 g ai/ha): 20; Ragweed plant response rating ([14]; 125 g ai/ha): 0; Ryegrass, Italian plant response rating ([15]; 125 g ai/ha): 0
COc1cccc(Oc2ncc(Cl)cn2)c1C(=O)OCCC(F)(F)F [Compound 112] | 0 | 0 | 60 | 0 | 0 | 10 | 0 | 0 | 0 | 0 | 40 | 0 | 0 | 60 | 20 | 0 | 100 | 100 | 40 | 20 | Plant response rating, Foxtail, Giant [1, 20]: 70; Plant response rating, Kochia (kochia (Kochia scoparia) [2]; [20]): 50; Plant response rating, Pigweed [3, 20]: 100; Plant response rating, Barnyardgrass [4, 20]: 80; Plant response rating, Ragweed [5, 20]: 0; Plant response rating, Ryegrass, Italian [6, 20]: 0; Foxtail, Giant plant response rating ([7]; 125 g ai/ha): 30; Corn plant response rating (corn (Zea mays); 125 g ai/ha): 0; Kochia plant response rating (kochia (Kochia scoparia) [8]; 125 g ai/ha): 30; Blackgrass plant response rating ([9]; 125 g ai/ha): 30; Pigweed plant response rating ([10]; 125 g ai/ha): 70; Wheat plant response rating ([11]; 125 g ai/ha): 0; Barnyardgrass plant response rating ([12]; 125 g ai/ha): 10; Galium plant response rating ([13]; 125 g ai/ha): 80; Ragweed plant response rating ([14]; 125 g ai/ha): 40; Ryegrass, Italian plant response rating ([15]; 125 g ai/ha): 0
O=C(OCC(F)(F)C(F)(F)F)c1c(F)cccc1Oc1ncc(Cl)cn1 [Compound 5] | 0 | 0 | 0 | 0 | 0 | 0 | 0 | 0 | 0 | 0 | 0 | 0 | 0 | 0 | 0 | 0 | 0 | 0 | 0 | 0 | Foxtail, Giant plant response rating [1, 20]: 0; Kochia plant response rating (kochia (Kochia scoparia) [2]; [20]): 0; Pigweed plant response rating [3, 20]: 0; Barnyardgrass plant response rating [4, 20]: 0; Ragweed plant response rating [5, 20]: 0; Ryegrass, Italian plant response rating [6, 20]: 0; Foxtail, Giant plant response rating (0 to 100 scale) ([7]; 125 g ai/ha): 0; Corn plant response rating (0 to 100 scale) (corn (Zea mays); 125 g ai/ha): 0; Kochia plant response rating (0 to 100 scale) (kochia (Kochia scoparia) [8]; 125 g ai/ha): 0; Blackgrass plant response rating (0 to 100 scale) ([9]; 125 g ai/ha): 0; Pigweed plant response rating (0 to 100 scale) ([10]; 125 g ai/ha): 0; Wheat plant response rating (0 to 100 scale) ([11]; 125 g ai/ha): 0; Barnyardgrass plant response rating (0 to 100 scale) ([12]; 125 g ai/ha): 0; Galium plant response rating (0 to 100 scale) ([13]; 125 g ai/ha): 0; Ragweed plant response rating (0 to 100 scale) ([14]; 125 g ai/ha): 0; Ryegrass, Italian plant response rating (0 to 100 scale) ([15]; 125 g ai/ha): 0
CCCSC(=O)c1c(Br)cccc1Oc1ncc(Cl)cn1 [Compound 70] | 0 | 0 | 0 | 0 | 0 | 0 | 0 | 10 | 20 | 0 | 10 | 0 | 0 | 30 | 0 | 0 | 70 | 80 | 0 | 0 | Foxtail, Giant plant response rating [1, 20]: 60; Kochia plant response rating (kochia (Kochia scoparia) [2]; [20]): 0; Pigweed plant response rating [3, 20]: 0; Barnyardgrass plant response rating [4, 20]: 20; Ragweed plant response rating [5, 20]: 0; Ryegrass, Italian plant response rating [6, 20]: 0; Foxtail, Giant plant response rating (0 to 100 scale) ([7]; 125 g ai/ha): 30; Corn plant response rating (0 to 100 scale) (corn (Zea mays); 125 g ai/ha): 10; Kochia plant response rating (kochia (Kochia scoparia) [8]; 125 g ai/ha): 70; Blackgrass plant response rating (0 to 100 scale) ([9]; 125 g ai/ha): 20; Pigweed plant response rating ([10]; 125 g ai/ha): 20; Wheat plant response rating ([11]; 125 g ai/ha): 0; Barnyardgrass plant response rating (0 to 100 scale) ([12]; 125 g ai/ha): 30; Galium plant response rating (0 to 100 scale) ([13]; 125 g ai/ha): 70; Ragweed plant response rating ([14]; 125 g ai/ha): 20; Ryegrass, Italian plant response rating ([15]; 125 g ai/ha): 20
